Test results as given in ChEMBL document CHEMBL4507284, “Data for DCP probe BI-1230” (2021).

Tests used:
Details in all cases: Compound concentration 1000.0 nM
[1] = molecular target: AP2-associated protein kinase 1 (Homo sapiens) (UniProt Q2M2I8)
[2] = molecular target: 5'-AMP-activated protein kinase catalytic subunit alpha-1 (Homo sapiens) (UniProt Q13131)
[3] = molecular target: Peripheral plasma membrane protein CASK (Homo sapiens) (UniProt O14936)
[4] = molecular target: Serine/threonine-protein kinase DCLK3 (Homo sapiens) (UniProt Q9C098)
[5] = molecular target: Epithelial discoidin domain-containing receptor 1 (Homo sapiens) (UniProt Q08345)
[6] = molecular target: Mitogen-activated protein kinase kinase kinase 12 (Homo sapiens) (UniProt Q12852)
[7] = molecular target: Serine/threonine-protein kinase MRCK gamma (Homo sapiens) (UniProt Q6DT37)
[8] = molecular target: Ephrin type-A receptor 2 (Homo sapiens) (UniProt P29317)
[9] = molecular target: Receptor tyrosine-protein kinase erbB-2 (Homo sapiens) (UniProt P04626)
Sequence of Receptor tyrosine-protein kinase erbB-2 (Homo sapiens) (P04626 whole entry): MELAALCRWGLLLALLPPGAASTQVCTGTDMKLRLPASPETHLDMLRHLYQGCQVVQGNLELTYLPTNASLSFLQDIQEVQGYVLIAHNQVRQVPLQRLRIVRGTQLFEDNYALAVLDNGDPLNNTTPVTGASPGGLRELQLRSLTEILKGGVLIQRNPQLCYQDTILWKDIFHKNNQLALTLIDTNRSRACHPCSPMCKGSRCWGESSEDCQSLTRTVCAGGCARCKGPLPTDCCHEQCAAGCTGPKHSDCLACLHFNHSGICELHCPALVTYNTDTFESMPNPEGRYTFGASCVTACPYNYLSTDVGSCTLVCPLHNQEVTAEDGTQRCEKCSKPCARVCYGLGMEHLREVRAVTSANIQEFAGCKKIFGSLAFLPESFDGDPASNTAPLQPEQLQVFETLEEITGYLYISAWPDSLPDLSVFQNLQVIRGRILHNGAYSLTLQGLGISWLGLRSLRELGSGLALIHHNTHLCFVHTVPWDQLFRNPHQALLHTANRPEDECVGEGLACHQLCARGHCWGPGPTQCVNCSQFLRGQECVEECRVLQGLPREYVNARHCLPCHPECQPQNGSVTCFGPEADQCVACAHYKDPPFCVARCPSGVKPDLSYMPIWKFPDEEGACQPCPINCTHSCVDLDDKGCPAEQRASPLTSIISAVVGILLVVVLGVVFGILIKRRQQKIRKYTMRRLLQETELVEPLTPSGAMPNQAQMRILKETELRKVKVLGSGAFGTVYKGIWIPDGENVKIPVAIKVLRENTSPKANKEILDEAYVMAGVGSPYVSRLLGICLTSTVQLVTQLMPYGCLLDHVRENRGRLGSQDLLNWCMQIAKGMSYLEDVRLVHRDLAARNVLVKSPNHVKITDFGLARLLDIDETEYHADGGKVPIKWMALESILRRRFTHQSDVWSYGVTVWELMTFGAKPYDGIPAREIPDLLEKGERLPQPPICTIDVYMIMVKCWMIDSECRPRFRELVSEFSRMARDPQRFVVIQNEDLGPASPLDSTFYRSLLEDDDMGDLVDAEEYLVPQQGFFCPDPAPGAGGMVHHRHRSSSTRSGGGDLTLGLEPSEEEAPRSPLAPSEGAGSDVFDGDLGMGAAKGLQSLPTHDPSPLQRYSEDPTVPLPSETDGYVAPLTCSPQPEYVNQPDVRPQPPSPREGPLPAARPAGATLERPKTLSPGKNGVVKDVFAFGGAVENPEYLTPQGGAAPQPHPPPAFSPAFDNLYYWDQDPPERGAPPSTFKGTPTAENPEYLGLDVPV

[10] = molecular target: Receptor tyrosine-protein kinase erbB-3 (Homo sapiens) (UniProt P21860)
[11] = tested on: Receptor-type tyrosine-protein kinase FLT3 (Homo sapiens), P36888 [UNDEFINED MUTATION]
[12] = molecular target: Cyclin-G-associated kinase (Homo sapiens) (UniProt O14976)
Sequence of Cyclin-G-associated kinase (Homo sapiens) (O14976 whole entry): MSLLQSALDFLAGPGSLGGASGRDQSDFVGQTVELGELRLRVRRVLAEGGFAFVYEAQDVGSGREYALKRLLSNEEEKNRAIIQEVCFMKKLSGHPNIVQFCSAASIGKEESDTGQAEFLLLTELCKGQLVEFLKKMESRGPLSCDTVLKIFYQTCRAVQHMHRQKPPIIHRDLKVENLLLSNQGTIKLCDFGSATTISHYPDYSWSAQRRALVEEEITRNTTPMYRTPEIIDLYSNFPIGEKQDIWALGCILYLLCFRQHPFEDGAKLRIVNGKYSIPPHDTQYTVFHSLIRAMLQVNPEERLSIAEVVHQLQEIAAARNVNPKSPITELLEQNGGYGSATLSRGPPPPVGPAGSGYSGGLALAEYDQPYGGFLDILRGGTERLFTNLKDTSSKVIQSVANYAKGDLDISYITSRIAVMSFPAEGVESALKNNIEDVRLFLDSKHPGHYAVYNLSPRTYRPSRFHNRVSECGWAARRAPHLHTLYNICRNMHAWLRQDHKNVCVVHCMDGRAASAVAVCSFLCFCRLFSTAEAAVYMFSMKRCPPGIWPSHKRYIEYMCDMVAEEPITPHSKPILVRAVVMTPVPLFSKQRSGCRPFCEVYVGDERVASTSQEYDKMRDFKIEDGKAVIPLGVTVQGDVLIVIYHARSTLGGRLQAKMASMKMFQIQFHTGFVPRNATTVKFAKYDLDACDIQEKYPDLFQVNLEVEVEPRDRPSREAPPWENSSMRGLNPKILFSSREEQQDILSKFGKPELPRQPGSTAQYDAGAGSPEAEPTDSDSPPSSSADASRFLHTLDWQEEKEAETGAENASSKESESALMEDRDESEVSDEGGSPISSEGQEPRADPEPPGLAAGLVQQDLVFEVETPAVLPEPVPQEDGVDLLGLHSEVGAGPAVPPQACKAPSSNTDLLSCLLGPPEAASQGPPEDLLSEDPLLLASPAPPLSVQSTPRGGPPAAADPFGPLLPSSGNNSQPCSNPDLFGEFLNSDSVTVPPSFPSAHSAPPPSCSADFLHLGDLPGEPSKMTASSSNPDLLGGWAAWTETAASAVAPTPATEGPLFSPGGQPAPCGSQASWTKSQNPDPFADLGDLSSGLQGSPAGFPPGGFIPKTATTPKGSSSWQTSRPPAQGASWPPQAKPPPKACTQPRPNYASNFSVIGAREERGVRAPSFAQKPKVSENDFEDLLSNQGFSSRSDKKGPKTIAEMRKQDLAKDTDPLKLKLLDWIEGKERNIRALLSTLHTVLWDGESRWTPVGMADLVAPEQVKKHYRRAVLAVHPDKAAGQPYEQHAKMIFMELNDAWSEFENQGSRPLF

[13] = tested on: eIF-2-alpha kinase GCN2 (Homo sapiens), Q9P2K8 [S808G]
[14] = molecular target: G protein-coupled receptor kinase 4 (Homo sapiens) (UniProt P32298)
[15] = molecular target: Glycogen synthase kinase-3 alpha (Homo sapiens) (UniProt P49840)
[16] = molecular target: Interleukin-1 receptor-associated kinase 1 (Homo sapiens) (UniProt P51617)
[17] = molecular target: Tyrosine-protein kinase JAK3 (Homo sapiens) (UniProt P52333)
Sequence of Tyrosine-protein kinase JAK3 (Homo sapiens) (P52333 whole entry): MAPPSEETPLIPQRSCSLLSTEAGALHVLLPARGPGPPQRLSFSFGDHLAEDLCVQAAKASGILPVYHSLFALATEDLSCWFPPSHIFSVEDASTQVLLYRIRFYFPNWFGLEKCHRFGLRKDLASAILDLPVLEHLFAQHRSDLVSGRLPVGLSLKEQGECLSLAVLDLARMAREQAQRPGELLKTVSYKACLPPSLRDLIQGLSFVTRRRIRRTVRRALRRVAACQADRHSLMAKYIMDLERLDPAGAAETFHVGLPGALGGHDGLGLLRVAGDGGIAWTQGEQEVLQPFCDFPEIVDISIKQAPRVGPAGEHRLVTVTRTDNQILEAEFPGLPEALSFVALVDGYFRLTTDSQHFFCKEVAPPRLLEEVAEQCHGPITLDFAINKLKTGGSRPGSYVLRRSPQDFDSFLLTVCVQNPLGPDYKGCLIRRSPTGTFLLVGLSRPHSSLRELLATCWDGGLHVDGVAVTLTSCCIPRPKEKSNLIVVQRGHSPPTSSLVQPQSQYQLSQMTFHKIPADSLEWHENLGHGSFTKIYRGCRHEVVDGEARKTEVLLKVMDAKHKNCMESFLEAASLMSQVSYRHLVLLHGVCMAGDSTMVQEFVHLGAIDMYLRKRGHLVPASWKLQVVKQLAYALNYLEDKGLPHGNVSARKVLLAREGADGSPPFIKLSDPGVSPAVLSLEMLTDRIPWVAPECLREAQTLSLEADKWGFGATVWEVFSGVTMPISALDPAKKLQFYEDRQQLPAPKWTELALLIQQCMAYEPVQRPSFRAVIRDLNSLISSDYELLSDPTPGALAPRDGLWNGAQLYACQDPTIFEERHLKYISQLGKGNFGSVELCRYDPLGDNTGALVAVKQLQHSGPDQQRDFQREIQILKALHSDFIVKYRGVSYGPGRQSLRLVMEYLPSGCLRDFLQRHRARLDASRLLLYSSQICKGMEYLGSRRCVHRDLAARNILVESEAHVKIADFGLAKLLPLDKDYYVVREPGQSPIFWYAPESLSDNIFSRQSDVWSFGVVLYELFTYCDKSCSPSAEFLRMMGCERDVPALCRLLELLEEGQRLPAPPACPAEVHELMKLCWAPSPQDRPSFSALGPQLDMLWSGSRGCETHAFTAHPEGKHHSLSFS

[18] = tested on: Mast/stem cell growth factor receptor Kit (Homo sapiens), P10721 [D816V]
[19] = tested on: Mast/stem cell growth factor receptor Kit (Homo sapiens), P10721 [V559D,T670I]
Sequence of Mast/stem cell growth factor receptor Kit (Homo sapiens), P10721 [V559D,T670I] (P10721 whole entry V559D/T670I): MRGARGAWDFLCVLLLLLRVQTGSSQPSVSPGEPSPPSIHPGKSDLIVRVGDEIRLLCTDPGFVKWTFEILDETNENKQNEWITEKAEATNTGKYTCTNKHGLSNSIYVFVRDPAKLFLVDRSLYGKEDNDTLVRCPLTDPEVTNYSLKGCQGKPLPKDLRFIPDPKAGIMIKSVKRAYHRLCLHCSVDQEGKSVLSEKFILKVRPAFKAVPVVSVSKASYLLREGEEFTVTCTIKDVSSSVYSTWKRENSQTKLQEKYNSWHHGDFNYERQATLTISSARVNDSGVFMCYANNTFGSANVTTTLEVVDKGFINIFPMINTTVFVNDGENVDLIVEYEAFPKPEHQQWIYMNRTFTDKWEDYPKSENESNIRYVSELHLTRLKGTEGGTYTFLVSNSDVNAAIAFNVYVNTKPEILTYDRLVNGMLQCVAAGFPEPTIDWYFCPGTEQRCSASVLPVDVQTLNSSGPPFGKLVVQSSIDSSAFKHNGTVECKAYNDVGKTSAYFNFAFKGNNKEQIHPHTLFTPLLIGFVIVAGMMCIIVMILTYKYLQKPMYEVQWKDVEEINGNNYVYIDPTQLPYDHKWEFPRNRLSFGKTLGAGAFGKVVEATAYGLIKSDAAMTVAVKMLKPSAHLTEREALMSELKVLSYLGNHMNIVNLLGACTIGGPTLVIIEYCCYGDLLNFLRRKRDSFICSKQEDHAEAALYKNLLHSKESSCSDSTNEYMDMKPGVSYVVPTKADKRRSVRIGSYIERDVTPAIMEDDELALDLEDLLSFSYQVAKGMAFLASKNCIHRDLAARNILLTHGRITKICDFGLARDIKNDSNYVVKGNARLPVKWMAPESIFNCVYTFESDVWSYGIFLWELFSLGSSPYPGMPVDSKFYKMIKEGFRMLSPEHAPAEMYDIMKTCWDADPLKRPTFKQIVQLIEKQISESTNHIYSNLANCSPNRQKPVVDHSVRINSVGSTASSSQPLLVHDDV

[20] = molecular target: Serine/threonine-protein kinase MAK (Homo sapiens) (UniProt P20794)
[21] = molecular target: Dual specificity mitogen-activated protein kinase kinase 5 (Homo sapiens) (UniProt Q13163)
Sequence of Dual specificity mitogen-activated protein kinase kinase 5 (Homo sapiens) (Q13163 whole entry): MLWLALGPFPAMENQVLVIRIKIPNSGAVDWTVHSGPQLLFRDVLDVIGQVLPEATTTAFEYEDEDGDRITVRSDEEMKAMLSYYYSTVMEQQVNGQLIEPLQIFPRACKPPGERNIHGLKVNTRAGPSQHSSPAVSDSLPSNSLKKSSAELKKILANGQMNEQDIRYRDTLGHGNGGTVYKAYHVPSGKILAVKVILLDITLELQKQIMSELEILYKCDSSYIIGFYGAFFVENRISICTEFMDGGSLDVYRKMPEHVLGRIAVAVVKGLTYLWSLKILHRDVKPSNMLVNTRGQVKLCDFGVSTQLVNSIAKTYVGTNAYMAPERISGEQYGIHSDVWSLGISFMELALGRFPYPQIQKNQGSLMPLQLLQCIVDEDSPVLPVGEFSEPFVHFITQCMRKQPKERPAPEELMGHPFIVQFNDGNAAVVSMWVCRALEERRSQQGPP

[22] = molecular target: Misshapen-like kinase 1 (Homo sapiens) (UniProt Q8N4C8)
[23] = molecular target: Myosin-IIIb (Homo sapiens) (UniProt Q8WXR4)
[24] = molecular target: Serine/threonine-protein kinase Nek9 (Homo sapiens) (UniProt Q8TD19)
[25] = molecular target: Mitogen-activated protein kinase kinase kinase 14 (Homo sapiens) (UniProt Q99558)
[26] = molecular target: Serine/threonine-protein kinase NLK (Homo sapiens) (UniProt Q9UBE8)
[27] = molecular target: Phosphorylase b kinase gamma catalytic chain, skeletal muscle/heart isoform (Homo sapiens) (UniProt Q16816)
[28] = molecular target: Phosphorylase b kinase regulatory subunit alpha, liver isoform (Homo sapiens) (UniProt P46019)
[29] = molecular target: Protein kinase C epsilon type (Homo sapiens) (UniProt Q02156)
[30] = molecular target: Protein kinase C iota type (Homo sapiens) (UniProt P41743)
[31] = molecular target: Serine/threonine-protein kinase PRP4 homolog (Homo sapiens) (UniProt Q13523)
[32] = tested on: Proto-oncogene tyrosine-protein kinase receptor Ret (Homo sapiens), P07949 [M918T]
[33] = molecular target: Serine/threonine-protein kinase RIO2 (Homo sapiens) (UniProt Q9BVS4)
[34] = molecular target: Ribosomal protein S6 kinase alpha-4 (Homo sapiens) (UniProt O75676)
[35] = molecular target: Serine/threonine-protein kinase SBK1 (Homo sapiens) (UniProt Q52WX2)
[36] = molecular target: Serine/threonine-protein kinase Sgk1 (Homo sapiens) (UniProt O00141)
[37] = molecular target: Serine/threonine-protein kinase TAO3 (Homo sapiens) (UniProt Q9H2K8)
[38] = molecular target: TGF-beta receptor type-2 (Homo sapiens) (UniProt P37173)
[39] = molecular target: Tyrosine-protein kinase receptor Tie-1 (Homo sapiens) (UniProt P35590)
[40] = molecular target: TRAF2 and NCK-interacting protein kinase (Homo sapiens) (UniProt Q9UKE5)
[41] = molecular target: Non-receptor tyrosine-protein kinase TNK1 (Homo sapiens) (UniProt Q13470)
[42] = molecular target: Non-receptor tyrosine-protein kinase TYK2 (Homo sapiens) (UniProt P29597)
[43] = molecular target: Serine/threonine-protein kinase ULK2 (Homo sapiens) (UniProt Q8IYT8)
[44] = molecular target: Serine/threonine-protein kinase VRK2 (Homo sapiens) (UniProt Q86Y07)
[45] = molecular target: Tyrosine-protein kinase ZAP-70 (Homo sapiens) (UniProt P43403)

`COc1ccc2c(O[C@@H]3C[C@H]4C(=O)N[C@]5(C(=O)O)CC5/C=C\CCCCC[C@H](NC(=O)OC5CCCC5)C(=O)N4C3)cc(-c3csc(NC(=O)C(C)C)n3)nc2c1C` (stereo not given in full) [BI 1230] gave a residual activity [1] of 100%, a residual activity [2] of 100% and a residual activity [3] of 97%. For the same compound, the residual activity [4] was 96%, the residual activity [5] was 100% and the residual activity [6] was 92%. It also gave a residual activity [7] of 100%, a residual activity [8] of 80% and a residual activity [9] of 97%. It also gave a residual activity [10] of 88%, a residual activity [11] of 71% and a residual activity [12] of 95%. The residual activity [13] was 100%, the residual activity [14] was 67% and the residual activity [15] was 100%. The residual activity [16] was 69%, the residual activity [17] was 88% and the residual activity [18] was 95%. The residual activity [19] was 76%, the residual activity [20] was 100% and the residual activity [21] was 71%. The residual activity [22] was 62%, the residual activity [23] was 68% and the residual activity [24] was 100%. The residual activity [25] was 89%, the residual activity [26] was 99% and the residual activity [27] was 96%. For the same compound, the residual activity [28] was 100%, the residual activity [29] was 58% and the residual activity [30] was 96%. For the same compound, the residual activity [31] was 93%, the residual activity [32] was 97% and the residual activity [33] was 100%. For the same compound, the residual activity [34] was 72%, the residual activity [35] was 98% and the residual activity [36] was 81%. The residual activity [37] was 88%, the residual activity [38] was 93% and the residual activity [39] was 100%. For the same compound, the residual activity [40] was 96%, the residual activity [41] was 100% and the residual activity [42] was 74%. For the same compound, the residual activity [43] was 95%, the residual activity [44] was 79% and the residual activity [45] was 100%.
`O=C(N[C@H]1CCCCC/C=C\C2C[C@@]2(C(=O)O)NC(=O)[C@@H]2C[C@@H](Oc3ccncc3)CN2C1=O)OC1CCCC1` (stereo not given in full) [BI 1675] was tested, and the residual activity [1] was 77%, the residual activity [2] was 100% and the residual activity [3] was 89%. It also gave a residual activity [4] of 100%, a residual activity [5] of 100% and a residual activity [6] of 100%. For the same compound, the residual activity [7] was 90%, the residual activity [8] was 71% and the residual activity [9] was 100%. The residual activity [10] was 84%, the residual activity [11] was 100% and the residual activity [12] was 90%. The residual activity [13] was 100%, the residual activity [14] was 80% and the residual activity [15] was 100%. For the same compound, the residual activity [16] was 88%, the residual activity [17] was 100% and the residual activity [18] was 90%. For the same compound, the residual activity [19] was 100%, the residual activity [20] was 82% and the residual activity [21] was 89%. For the same compound, the residual activity [22] was 100%, the residual activity [23] was 38% and the residual activity [24] was 100%. It also gave a residual activity [25] of 100%, a residual activity [26] of 100% and a residual activity [27] of 88%. The residual activity [28] was 100%, the residual activity [29] was 100% and the residual activity [30] was 100%. It also gave a residual activity [31] of 92%, a residual activity [32] of 96% and a residual activity [33] of 100%. For the same compound, the residual activity [34] was 85%, the residual activity [35] was 100% and the residual activity [36] was 100%. For the same compound, the residual activity [37] was 100%, the residual activity [38] was 85% and the residual activity [39] was 100%. It also gave a residual activity [40] of 78%, a residual activity [41] of 100% and a residual activity [42] of 99%. It also gave a residual activity [43] of 100%, a residual activity [44] of 100% and a residual activity [45] of 96%.
